Source: patent publication US4977152A, “Novel tricyclic derivatives which are agonists of cholinergic receptors, and drugs in which they are present” (Societe Anonyme: Sanofi, priority 1986, dated 1990)
Positions count from the first letter of the chain named. Structures can show the parent of a compound that is named as a salt.

How the values were obtained:
[1] = target: T1, M1-type muscarinic cholinergic receptor (Rattus norvegicus, UniProt P08482); test: Test for affinity for the M1-type muscarinic cholinergic receptor: displacement of [3H]pirenzepine on rat hippocampus homogenate; type: binding
T1 sequence (P08482 1-460): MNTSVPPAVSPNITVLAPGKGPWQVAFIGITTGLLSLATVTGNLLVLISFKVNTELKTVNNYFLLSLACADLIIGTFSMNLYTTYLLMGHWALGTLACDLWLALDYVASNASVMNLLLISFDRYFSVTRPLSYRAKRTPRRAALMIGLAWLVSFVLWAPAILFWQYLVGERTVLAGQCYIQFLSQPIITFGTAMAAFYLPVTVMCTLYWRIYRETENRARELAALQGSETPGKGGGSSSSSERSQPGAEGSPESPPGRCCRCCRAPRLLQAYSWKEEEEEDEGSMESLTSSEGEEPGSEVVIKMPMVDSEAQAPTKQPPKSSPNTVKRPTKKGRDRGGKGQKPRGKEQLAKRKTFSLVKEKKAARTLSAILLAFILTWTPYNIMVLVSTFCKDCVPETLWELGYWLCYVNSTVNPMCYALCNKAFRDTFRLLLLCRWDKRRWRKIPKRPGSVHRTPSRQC
From the text: (§1) The M1 -type receptors are concentrated in certain areas of the brain, such as the hippocampus, the cerebral cortex and the striatum, and also in the sympathetic ganglia. These binding sites can be selectively labeled with [^3 H]pirenzepine ([^3 H]PZ). The M2 -type receptors predominate in the heart and ileum and can be labeled with [^3 H]N-methylscopolamine ([^3 H]NMS). To determine the selectivity of our molecules towards the M1 and M2 sites, we studied their interaction in vitro with [^3 H]PZ and [^3 H]NMS bound with a high affinity to membranes of rat hippocampus and membranes of smooth muscle of guinea-pig ileum, respectively.
The interaction of the molecules with M1 -type muscarinic receptors was studied by in vitro measurement, on a homogenate of rat hippocampus, of the displacement of tritiated pirenzepine ([^3 H]PZ) from its specific binding sites. Aliquots (10 μl) of a 5% (w/v) homogenate of rat hippocampus in an Na2 HPO4 buffer (50 mM, pH 7.40) are incubated for 2 h at 4° C. in the presence of [^3 H]pZ ([…]; final concentration: 1 nM) and increasing concentrations of products to be studied. The final volume is 2 ml. The reaction is stopped by centrifugation for 10 min at 50,000 × g. After decantation and washing of the residues, the bound radioactivity is counted by liquid scintillation. The non-specific binding is determined in the presence of 10 μmol/l of atropine sulfate. The 50% inhibitory concentration (IC50) is determined graphically (Ref.: Watson J. D., Roeskoe W. R. and Yamamura H.1., Life Sci., 31, 2019-2029, 1982).
(§2) Table 4 indicates the affinities of the products of the invention for M1 and M2 receptors. The results are expressed as 50% inhibitory concentrations (IC50), i.e. the concentration (in μM) which causes a 50% displacement placement of the tritiated ligand bound to the membrane receptors. The IC50 for displacement of ^3 H-pirenzepine represents the affinity for the M1 receptor; the IC50 for displacement of 3H-NMS represents the affinity for the M2 receptor.

[2] = target: T2, M2-type muscarinic cholinergic receptor (Cavia porcellus, UniProt H0VRN8); test: Test for affinity for the M2-type muscarinic cholinergic receptor: displacement of [3H]N-methylscopolamine on smooth muscle of guinea-pig ileum; type: binding; conditions: guinea-pig ileum smooth muscle homogenate, 0.3 nM [3H]NMS, 20 min at 30° C., pH 7.5
T2 construct: on a homogenate of smooth muscle of guinea-pig ileum; from tissue; host or cells: guinea-pig ileum smooth muscle homogenate
T2 sequence (H0VRN8 1-466): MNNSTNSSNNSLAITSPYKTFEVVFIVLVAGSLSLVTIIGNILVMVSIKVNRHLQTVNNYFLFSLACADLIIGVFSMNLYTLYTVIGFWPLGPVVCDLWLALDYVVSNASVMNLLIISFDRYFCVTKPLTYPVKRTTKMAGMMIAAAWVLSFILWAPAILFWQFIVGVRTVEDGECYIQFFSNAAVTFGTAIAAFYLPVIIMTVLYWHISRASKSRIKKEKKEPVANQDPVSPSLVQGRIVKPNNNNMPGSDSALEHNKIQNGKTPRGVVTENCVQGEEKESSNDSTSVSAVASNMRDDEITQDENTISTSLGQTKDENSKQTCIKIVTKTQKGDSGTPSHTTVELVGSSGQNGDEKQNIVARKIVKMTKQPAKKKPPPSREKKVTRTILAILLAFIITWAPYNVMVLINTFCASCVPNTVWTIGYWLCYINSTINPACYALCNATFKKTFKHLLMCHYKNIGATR
From the text: as §1
The interaction with M2 -type muscarinic receptors was studied by in vitro measurement, on a homogenate of smooth muscle of guinea-pig ileum, of the displacement of tritiated N-methylscopolamine ([^3 H]NMS) from its specific binding sites. Aliquots (50 μl) of a 0.625% (w/v) homogenate of smooth muscle of guinea-pig ileum in MEPES buffer (20 mM) containing NaCl (100 mM) and MgCl2 (10 mM) (final pH: 7.5) are incubated for 20 min at 30° C. in the presence of [^3 H]NMS ([…]; final concentration: 0.3 nM) and increasing concentrations of products to be tested. The final volume is 1 ml. The reaction is stopped by centrifugation for 5 min at 15,000 × g. The non-specific binding is determined in the presence of 10 μmol/l of atropine sulfate (Ref.: Hammer R., Berrie C. P., Birdsall N. I. M., Burgen A. S. V. and Hulme E. C., Nature, 283, 90-92, 1980; Hulme E. C., Birdsall N.1.M., Burgen A. S. V. and Mettha P., Mol. pharmacol., 14, 737-750, 1978).
as §2

[3] = target: T3, M1 central muscarinic cholinergic receptors (Mus musculus, UniProt P12657); test: Antagonism of rotational behavior induced by intrastriatal injection of pirenzepine in mice; type: in vivo, mice (female, Swiss, CD 1); conditions: ip, mice, i.p. 15 minutes before intrastriatal pirenzepine, 50% reduction in number of rotations, read-out: Pirenzepine antagonism ED50
T3 construct: The intrastriatal injection of PZ into mice induces rotational behavior; from tissue; host or cells: right striatum of living female mice (Swiss, CD 1)
T3 sequence (P12657 1-460): T1 sequence (P08482 1-460) with S309P
Protocol: Pirenzepine (PZ) is a specific antagonist of M1 central muscarinic cholinergic receptors. The intrastriatal injection of PZ into mice induces rotational behavior. The antagonism of this behavior by the products according to the invention was studied.
The products according to the invention are injected intraperitoneally (i.p.) after solubilization in distilled water or suspension in a 5% solution of gum arabic. The control animals receive an injection of the pure solvent under the same conditions.
The animals used are female mice (Swiss, CD 1, Charles River, France) with a body weight of between 25 and 30 grams.
Pirenzepine is dissolved in a phosphate buffer; the pH of the solution is 6.
The products to be studied or their solvents are injected intraperitoneally, in a volume of 0.4 ml per 20 g of body weight, 15 minutes before a direct injection of pirenzepine at a dose of […] into the right striatum of the mouse, according to the method described by p.
The number of contralateral rotations (rotations in the opposite direction to the side injected) was counted for three 2-minute periods after the injection of pirenzepine: minutes 2 to 4, 8 to 10 and 13 to 15. Each treatment includes 3 to 4 doses and 10 animals per dose. For each treatment, the total number of rotations and the percentage antagonism compared with the control group are calculated.

SMILES: CN1CCC(Nc2cc3c(nn2)-c2ccccc2CCC3)CC1 [SR 96093 A, 3-(1-Methylpiperidin-4-yl)amino]-6,7-dihydro-5H-benzocyclohepta[5,6-c]pyridazine dihydrochloride]
- IC50 ([1]; rat hippocampus homogenate, 1 nM [3H]PZ, 2 h at 4° C., pH 7.40): 1.2 µM
- r = (M2 /M1) ([1]; ratio of IC50 M2 (3H-NMS, guinea-pig ileum) to IC50 M1 (3H-pirenzepine, rat hippocampus)): 42
- IC50 [2]: 50 µM
- ED50 [3]: 15 mg/kg
